Experimental data taken from paper PMC9925730, “Controlled sequential in situ self-assembly and disassembly of a fluorogenic cisplatin prodrug for cancer theranostics” (Nature Communications, 2023).
Values joined by “and” are separate entries in the source; they are usually repeats but may differ in a detail not shown here. Equal values may be shown once. Read-outs that look alike come from different tables or passages of the source.

Columns and labels:
s.c. HeLa tumors [1] = assay: Biodistribution study of Pt (ICP-OES); type: in vivo, mice
[2] = test system: orthotopic HepG2/Luc liver tumors; assay: Chemotherapy of orthotopic liver tumors (BL imaging, ex vivo BL and FL imaging); type: in vivo, mice;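 further: bioluminescence quantified by ROI over liver region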
HeLa cells [3] = assay: Flow cytometry analysis of HeLa cell death (Annexin V-FITC/PI); type: cell-based, human; settings: 20 μM 2 h, then blank medium 48 h
Procedure: Flow cytometric analysis of HeLa cell death. (a) Gating strategy applied for flow cytometric analysis. (b) Representative flow cytometric analysis of HeLa cells by Annexin V-FITC/PI staining. HeLa cells were treated with PBS, CDDP, PtIVNPs or P-CyPt (20 μM) for 2 h, washed with cold PBS for three times, and then continued incubation in refresh blank DMEM medium for another 48 h. The cells were then stained with the Annexin V-FITC/PI kit, and analyzed by flow cytometry. One representative experiment out of two is shown.
Flow cytometry analysis of HeLa cell death. Approximately 2×10^5 cells/well HeLa cells in 2 mL DMEM medium were seeded onto 6-well plates and allowed to grow overnight. The medium was replaced with 1 mL of fresh medium containing P-CyPt (20 μM), PtIVNPs (20 μM) and CDDP (20 μM), respectively. After 2 h incubation, medium was removed and cells were washed with PBS for three times. Then, cells were incubated with fresh medium for another 48 h to induce different levels of apoptosis.
After gentle washing with PBS (×1), the cells were detached from the plates with trypsin (500 μL per well), and the cell pellets were collected after centrifugation at 1000 161× g at 4 °C for 4 min. […] All assays were performed according to the manufacturer instructions, and the cell population was analyzed by annexin V-FITC and PI channels. […]

[4] = Body weight of mice with orthotopic HepG2/Luc liver tumors; type: in vivo; settings: individual samples, in g (unit assumed)
HepG2 cells = assay: Cytotoxicity, MTT assay; type: cell-based, human; parameters: key to cell viability, mean: % viability = OD / OD of untreated control
Procedure: (§1) HeLa cells were seeded on flat-bottomed 96-well plates (5000 cells per well) and incubated at 37 °C overnight. Varying concentrations of P-CyPt, Pt^IVNPs or CDDP (0, 1, 2, 5, 10, 20, 30, 50, 100, and 200 μM) in DMEM medium (100 μL) were added. Cells were either incubated for 48 h, or firstly incubated with these three compounds for 2 h, washed with PBS and then incubated with refreshed blank DMEM medium for another 48 h. Then, 3-(4,5)-dimethylthiahiazo (-z-y1)−3,5-di-phenytetrazoliumromide (MTT, 50 μL, 1 mg /mL in PBS) was added into each well. The cells were kept at 37 °C for 4 h, and the solution in each well was carefully removed, followed by addition of dimethyl sulfoxide (DMSO, 150 μL). The absorbance (OD) at 490 nm in each well was acquired on the microplate reader (Tcan). The absorbance of non-treated blank cells (OD control) was used as the control. The percentage of cell viability was calculated by dividing OD to the OD control. […]
(§2) Supplementary Table 4. The IC50 (μM) value of different Pt drugs toward HeLa, HepG2 and HEK-293T cells.a
(§3) Compounds Condition IC50 (μM) HeLa HepG2 HEK-293T […]
(§4) a The IC50 values were measured by the MTT assay. Values denote mean ± s.d. (n = 3 independent experiments). b Cells were incubated with varying concentrations of CDDP, P-CyPt or PtIVNPs for […]
(§5) c Cells were incubated with varying concentrations of CDDP, P-CyPt or PtIVNPs for 2 h, and the mediums were removed, washed with PBS. Blank culture mediums were added, and the cells were kept incubation for another 48 h.

HeLa cells [5] = assay: Cytotoxicity, MTT assay; type: cell-based, human; parameters: key to cell viability, mean: % viability = OD / OD of untreated control
Procedure: as §1, §2, §3, §4, §5

HEK-293T cells = assay: Cytotoxicity, MTT assay; type: cell-based, human; parameters: key to cell viability, mean: % viability = OD / OD of untreated control
Procedure: as §1, §2, §3, §4, §5

s.c. HeLa tumors [6] = assay: Chemotherapy of s.c. HeLa tumors in vivo; parameters: species or system mice; settings: s.c. HeLa, 2.25 mg kg^−1 Pt i.v. on day 0, 3, 6, 9, 12
Procedure: Sixteen mice with s.c. […] Each experiment was conducted in four mice.

[7] = Body weight of mice with orthotopic HepG2/Luc liver tumors; type: in vivo; settings: mean of 3, in g (unit assumed)

## [NH2][Pt]([NH2])([Cl])[Cl] [CDDP, cisplatin]
s.c. HeLa tumors [1]; 4 h post i.v. injection
  organ with the highest ID% g^−1: kidneys
s.c. HeLa tumors [1]; s.c. HeLa tumors, 4 h post i.v. (100 μM, 200 μL), ICP-OES
  ID% g^−1 of Pt in tumors: ~ 3.6%
[2]; 2.25 mg kg^−1 Pt i.v. day 0, 3, 6, 9, 12, day 3
  tumor BL intensity of liver: 88767.5
[2]; day 6
  tumor BL intensity of liver: 201697.5
[2]; day 9
  tumor BL intensity of liver: 375850.0
[2]; day 12
  tumor BL intensity of liver: 589375.0
HeLa cells [3]
  apoptosis population: ~ 5.20%
[4]; time 0 d
  Body weight of mice (Supplementary Fig. 34): 19.83 and 20.11 and 22.01
[4]; time 3 d
  Body weight of mice (Supplementary Fig. 34): 18.72 and 20.66 and 21.22
[4]; time 6 d
  Body weight of mice (Supplementary Fig. 34): 17.7 and 19.43 and 21.14
[4]; time 9 d
  Body weight of mice (Supplementary Fig. 34): 17.17 and 18.45 and 20.33
[4]; time 12 d
  Body weight of mice (Supplementary Fig. 34): 16.32 and 17.76 and 19.54
[4]; time 15 d
  Body weight of mice (Supplementary Fig. 34): 16.24 and 17.17 and 19.09
HepG2 cells; HepG-2, 2+48 h, individual samples, read-out: IC50-2+48h
  IC50: > 200 µM
HepG2 cells; HepG-2, 2+48 h, mean of 3 samples, read-out: IC50-2+48h
  IC50: > 200 µM
HepG2 cells; Supplementary Fig. 23 (b), concentration 1 μM
  cell viability, mean: 95.3204
HepG2 cells; Supplementary Fig. 23 (b), concentration 2 μM
  cell viability, mean: 89.9797
HepG2 cells; Supplementary Fig. 23 (b), concentration 5 μM
  cell viability, mean: 77.7747
HepG2 cells; Supplementary Fig. 23 (b), concentration 10 μM
  cell viability, mean: 61.9896
HepG2 cells; Supplementary Fig. 23 (b), concentration 20 μM
  cell viability, mean: 45.1643
HepG2 cells; Supplementary Fig. 23 (b), concentration 30 μM
  cell viability, mean: 34.2775
HepG2 cells; Supplementary Fig. 23 (b), concentration 50 μM
  cell viability, mean: 23.521
HepG2 cells; Supplementary Fig. 23 (b), concentration 100 μM
  cell viability, mean: 12.914
HepG2 cells; Supplementary Fig. 23 (b), concentration 200 μM
  cell viability, mean: 8.323
HepG2 cells; Supplementary Fig. 23 (b), read-out: IC50
  IC50: 16.3 µM
HepG2 cells; Supplementary Fig. 24 (b), concentration 1 μM
  cell viability, mean: 97.7401
HepG2 cells; Supplementary Fig. 24 (b), concentration 2 μM
  cell viability, mean: 96.3386
HepG2 cells; Supplementary Fig. 24 (b), concentration 5 μM
  cell viability, mean: 94.9498
HepG2 cells; Supplementary Fig. 24 (b), concentration 10 μM
  cell viability, mean: 92.0343
HepG2 cells; Supplementary Fig. 24 (b), concentration 20 μM
  cell viability, mean: 89.3937
HepG2 cells; Supplementary Fig. 24 (b), concentration 30 μM
  cell viability, mean: 84.3715
HepG2 cells; Supplementary Fig. 24 (b), concentration 50 μM
  cell viability, mean: 79.6906
HepG2 cells; Supplementary Fig. 24 (b), concentration 100 μM
  cell viability, mean: 74.3564
HepG2 cells; Supplementary Fig. 24 (b), concentration 200 μM
  cell viability, mean: 60.8897
HepG2 cells; Supplementary Fig. 24 (b), read-out: IC50
  IC50: > 200 µM
HepG2 cells; incubated 2 h, then blank medium 48 h, MTT, read-out: IC50 HepG2
  IC50: > 200 µM
HepG2 cells; incubated 48 h, MTT, read-out: IC50 HepG2
  IC50: 16.3 ± 1.69 µM
HeLa cells [5]; Supplementary Fig. 23 (a), concentration 1 μM
  cell viability, mean: 94.4173
HeLa cells [5]; Supplementary Fig. 23 (a), concentration 2 μM
  cell viability, mean: 90.2597
HeLa cells [5]; Supplementary Fig. 23 (a), concentration 5 μM
  cell viability, mean: 78.7193
HeLa cells [5]; Supplementary Fig. 23 (a), concentration 10 μM
  cell viability, mean: 62.7353
HeLa cells [5]; Supplementary Fig. 23 (a), concentration 20 μM
  cell viability, mean: 41.6693
HeLa cells [5]; Supplementary Fig. 23 (a), concentration 30 μM
  cell viability, mean: 27.22
HeLa cells [5]; Supplementary Fig. 23 (a), concentration 50 μM
  cell viability, mean: 19.0133
HeLa cells [5]; Supplementary Fig. 23 (a), concentration 100 μM
  cell viability, mean: 10.56
HeLa cells [5]; Supplementary Fig. 23 (a), concentration 200 μM
  cell viability, mean: 6.51
HeLa cells [5]; Supplementary Fig. 23 (a), read-out: IC50
  IC50: 14.5 µM
HeLa cells [5]; Supplementary Fig. 24 (a), concentration 1 μM
  cell viability, mean: 98.8285
HeLa cells [5]; Supplementary Fig. 24 (a), concentration 2 μM
  cell viability, mean: 97.2876
HeLa cells [5]; Supplementary Fig. 24 (a), concentration 5 μM
  cell viability, mean: 95.6072
HeLa cells [5]; Supplementary Fig. 24 (a), concentration 10 μM
  cell viability, mean: 92.7687
HeLa cells [5]; Supplementary Fig. 24 (a), concentration 20 μM
  cell viability, mean: 89.3445
HeLa cells [5]; Supplementary Fig. 24 (a), concentration 30 μM
  cell viability, mean: 83.6169
HeLa cells [5]; Supplementary Fig. 24 (a), concentration 50 μM
  cell viability, mean: 75.0853
HeLa cells [5]; Supplementary Fig. 24 (a), concentration 100 μM
  cell viability, mean: 65.2268
HeLa cells [5]; Supplementary Fig. 24 (a), concentration 200 μM
  cell viability, mean: 49.73
HeLa cells [5]; Supplementary Fig. 24 (a), read-out: IC50
  IC50: 178 µM
HeLa cells [5]; incubated 2 h, then blank medium 48 h, MTT, read-out: IC50 HeLa
  IC50: 178 µM and > 150 µM
HeLa cells [5]; incubated 48 h, MTT, read-out: IC50 HeLa
  IC50: 14.5 ± 1.6 µM
HEK-293T cells; HEK-293T, 2+48 h, individual samples, read-out: IC50-2+48h
  IC50: > 200 µM
HEK-293T cells; HEK-293T, 2+48 h, mean of 3 samples, read-out: IC50-2+48h
  IC50: > 200 µM
HEK-293T cells; Supplementary Fig. 23 (c), concentration 1 μM
  cell viability, mean: 95.9542
HEK-293T cells; Supplementary Fig. 23 (c), concentration 2 μM
  cell viability, mean: 90.0454
HEK-293T cells; Supplementary Fig. 23 (c), concentration 5 μM
  cell viability, mean: 78.4742
HEK-293T cells; Supplementary Fig. 23 (c), concentration 10 μM
  cell viability, mean: 63.7251
HEK-293T cells; Supplementary Fig. 23 (c), concentration 20 μM
  cell viability, mean: 47.669
HEK-293T cells; Supplementary Fig. 23 (c), concentration 30 μM
  cell viability, mean: 34.929
HEK-293T cells; Supplementary Fig. 23 (c), concentration 50 μM
  cell viability, mean: 24.7568
HEK-293T cells; Supplementary Fig. 23 (c), concentration 100 μM
  cell viability, mean: 14.7932
HEK-293T cells; Supplementary Fig. 23 (c), concentration 200 μM
  cell viability, mean: 8.255
HEK-293T cells; Supplementary Fig. 23 (c), read-out: IC50
  IC50: 17.4 µM
HEK-293T cells; Supplementary Fig. 24 (c), concentration 1 μM
  cell viability, mean: 98.6071
HEK-293T cells; Supplementary Fig. 24 (c), concentration 2 μM
  cell viability, mean: 97.4354
HEK-293T cells; Supplementary Fig. 24 (c), concentration 5 μM
  cell viability, mean: 96.6584
HEK-293T cells; Supplementary Fig. 24 (c), concentration 10 μM
  cell viability, mean: 94.4248
HEK-293T cells; Supplementary Fig. 24 (c), concentration 20 μM
  cell viability, mean: 94.1486
HEK-293T cells; Supplementary Fig. 24 (c), concentration 30 μM
  cell viability, mean: 93.57
HEK-293T cells; Supplementary Fig. 24 (c), concentration 50 μM
  cell viability, mean: 92.6006
HEK-293T cells; Supplementary Fig. 24 (c), concentration 100 μM
  cell viability, mean: 91.2991
HEK-293T cells; Supplementary Fig. 24 (c), concentration 200 μM
  cell viability, mean: 85.8671
HEK-293T cells; Supplementary Fig. 24 (c), read-out: IC50
  IC50: > 200 µM
HEK-293T cells; incubated 2 h, then blank medium 48 h, MTT, read-out: IC50 HEK-293T
  IC50: > 200 µM
HEK-293T cells; incubated 48 h, MTT, read-out: IC50 HEK-293T
  IC50: 17.4 ± 1.05 µM
s.c. HeLa tumors [6]
  tumor volume growth on day 21: ~ 15.8 fold
[7]; time 0 d
  Body weight of mice (Supplementary Fig. 34): 20.65
[7]; time 3 d
  Body weight of mice (Supplementary Fig. 34): 20.2
[7]; time 6 d
  Body weight of mice (Supplementary Fig. 34): 19.4233
[7]; time 9 d
  Body weight of mice (Supplementary Fig. 34): 18.65
[7]; time 12 d
  Body weight of mice (Supplementary Fig. 34): 17.8733
[7]; time 15 d
  Body weight of mice (Supplementary Fig. 34): 17.5
